This is an account of results in patent US8669232B2, “Flavonol compounds, a bioactive extract/fraction from Ulmus wallichiana and its compounds for prevention for treatment of osteo-health related disorders” (Council of Scientific & Industrial Research, priority 2008, dated 2014).

Assay [1] has as its system calvarial osteoblasts. The assay is described as follows: Alkaline phosphatase activity assay in calvarial osteoblasts. The format is cell-based, neonatal Sprague-Dawley rats. How it is done: (§1) Neonatal rat calvarial cell cultures are prepared as described previously (Chattopadhyay et al., Endocrinology 145:3451-62, 2004) using slight modification. Briefly, for calvarial osteoblast cultures, frontal and parietal bones from neonatal Sprague-Dawley rats (1-3 day old) were digested in 0.1% collagenase/0.1% dispase in α-MEM to obtain 5 sequential digests. The second through fifth digests are combined and grown to confluence at 37° C. and 5% CO2 in air in α-MEM, supplemented with 10% fetal bovine serum (FBS), 2 mM glutamine, 100 U/ml penicillin-streptomycin, non-essential amino acid solution and sodium pyruvate.
For alkaline phosphatase (ALP) assay, osteoblasts were plated in 96-well (2000 cells/well) plates in regular growth medium. Twenty-four hours later, when the cells formed a confluent monolayer, medium was replaced with α-MEM medium supplemented with 10% FBS, 10 mM β-glycerophosphate and 50 μg/ml ascorbic acid. Treatment was given with varying concentration of the test compound K012, K058, K068 and K100 at 1 nM and 100 nM concentration. Forty-eight hours after induction, ALP activity of the osteoblasts was determined as described by Akiyama et al (Exp Cell Res 235:362-369, 1997) with slight modifications. Briefly, cells were washed once with PBS and ALP activity was measured by adding ALP buffer (1 M diethanolamine, 0.5 mM MgCl2, 1 mg/ml PNPP, pH 9.0), incubating in 37° C., and absorbance (405 nm) was measured using a microplate spectrophotometer. Statistical significance was determined by paired two-tailed Student's t-tests.

The subject of assay [2] is calvarial osteoblasts. The assay is described as follows: In vitro mineralization of calvarial osteoblasts (alizarin red-S, von kossa). The format is cell-based, neonatal Sprague-Dawley rats. The settings on record: for Von kossa staining (mineralized nodules) compared with controls (vehicle): 21 days culture. As to the method:
as §1
Ability of cells to produce mineralized matrix is important with regard to development of materials for bone regeneration. Mineralization of extracellular matrix by osteoblasts was determined using alizarin red-S (AR-S) assay combined with cetylpyridinium chloride (CPC) extraction. (Stanford et al, J. Biol. Chem. 270:9420-9428; 1995.) Alizarin red is a dye that binds selectively to nascent calcium salts and is widely used for calcium mineral histochemistry. Cells were seeded onto a six well plate containing 10000 cells/well in culture medium supplemented with 10 mM β-glycerophosphate and 50 μg/ml ascorbic acid with test compounds K012, K058, K068 and K0100 at 1 nM and 100 nM concentration. Treatment was given for 21 days and after completion of the treatment samples were rinsed with PBS followed by fixation (4% HCHO for 20 min). Photomicrographs of the stained wells were taken. Subsequently, alizarin red-S stain was extracted using 10% (w/v) cetylpyridinium chloride (CPC) in […] sodium phosphate, pH 7.0, for 15 min at room temperature, and the resulting solutions were read on a Microplate reader with a test wavelength of 540 nm against a reference wavelength of 620 nm. Mineralization nodules were also seen by Von kossa staining procedure (A. M. Chou et al. Materials Science and Engineering C 20 (2002) 77-83.) After 21 days culture, cells in tissue culture wells were washed with PBS and immersed in 5% (w/v) silver nitrate solution for 45 min. After rinsing with distilled water, they were fixed in 5% (w/v) sodium bicarbonate formalin for 8 min. Finally, they were immersed in 5% (w/v) sodium thiosulphate solution for 5 min and washed thoroughly with water for 15 min and photomicrographs were taken.

Assay [3] concerns Ishikawa cells. The assay is described as follows: In vitro estrogenicity / anti-estrogenicity (ALP induction). The format is cell-based, human. The settings on record: 72 h; for inhibition of increase in ALP activity stimulated by 17β-estradiol (anti-estrogenicity): 10^−11 to 10^−6 M with 10^−8 M 17β-estradiol; for ALP levels (estrogenicity): 10^−11 to 10^−6 M. How it is done:
The expression of alkaline phosphatase is induced in Ishikawa cells in response to estrogen or estrogen like substances (Littlefield et al, Endocrinology. 1990 December; 127(6):2757-62.). Ishikawa cells were plated in 96-well flat bottomed microtiter plates at a density of 5000 cells/well and cultured in phenol red free DMEM containing 10% charcoal treated FCS. After 24 h of plating, cells were serum-starved for 12 h. Thereafter, for testing estrogenicity of compounds, the cells were treated with different concentrations (10^−6 to 10^−11 M) of pure compounds K058 and K012. Same concentrations of Raloxifene were also used for comparison. Estrogen concentration of 10^−8 M was used as a positive control. Compound treatments were performed for 72 h at 37° C. in CO2 incubator. Experiments were repeated 4 times. For the anti-estrogenicity studies, the compounds K012 and K058 at 10^−6 to 10^−11 M were added with 10^−8 M estrogen. After 72 h of incubation, the media was removed and the plates were washed twice with PBS and dried by tapping, gently. Freeze fracture of cells was achieved by placing the plates at −70° C. for 15, min followed by bringing to room temperature. The plates were then placed on ice and 50 μl of ice cold diethanolamine solution (5 mM P-nitrophenyl phosphate (PNP) and 0.25 mM MgCl2 in 1 M diethanolamine) was added to each well. The plates were then placed at 37° C. for 30 minutes for color (yellow) development is a function of ALP activity. Absorbance was measured at 405 nm.

Turning to `O=c1c(O)c(-c2ccc(O)c(O)c2)oc2cc(O)c(C3O[C@H](CO)[C@@H](O)[C@H](O)[C@H]3O)c(O)c12` (stereo partly shown) [K012, 6-Glucopyranosyl-3,3′,4′,5,7-pentahydroxyflavone], in assay [1], the “osteoblast differentiation (summary of in vitro effects)” value was “promoted”. In assay [2], the “osteoblast mineralization (summary of in vitro effects)” value was “promoted” and the “Von kossa staining (mineralized nodules) compared with controls (vehicle)” value is listed as “increased”. In assay [3], the “inhibition of increase in ALP activity stimulated by 17β-estradiol (anti-estrogenicity)” value is given as “did not inhibit” and the “ALP levels (estrogenicity)” value is “no increase”.
As to `O=C1c2c(cc(O)c([C@@H]3OC(CO)[C@@H](O)[C@H](O)C3O)c2O)O[C@@H](c2ccc(O)c(O)c2)[C@@H]1O` (stereo partly drawn) [K058, (2S,3S)-(+)-3′,4′,5,7-tetrahydroxydihydroflavonol-6-C-β-D-glucopyranoside], the “osteoblast differentiation (summary of in vitro effects)” value in assay [1] was “promoted”. Also, in assay [2], the “osteoblast mineralization (summary of in vitro effects)” value is listed as “promoted” and the “Von kossa staining (mineralized nodules) compared with controls (vehicle)” value was “increased”. In assay [3], the “inhibition of increase in ALP activity stimulated by 17β-estradiol (anti-estrogenicity)” value is reported as “did not inhibit” and the “ALP levels (estrogenicity)” value is “no increase”.
